Test results: patent publication US20040171795A1, “Novel peptides” (priority 2000, published 2004)

How the values were obtained:
[1] = Affinity for phosphatidyl serine (EIA, inhibition of human Factor VIII binding); settings: class of IC50 for inhibiting human Factor VIII binding, 5% BSA
Description: The specific affinity of the peptide for phosphatidyl serine was evaluated by measuring activity of the peptide for inhibiting the binding of the human Factor VIII to phosphatidyl serine by using human Factor VIII which is known to bind to phosphatidyl serine but not to phosphatidyl choline in the presence of serum albumin. To be more specific, 100 μL of ethanol solution containing 10 μg/mL of phospholipids at a phosphatidyl serine (manufactured by SIGMA): phosphatidyl choline (manufactured by SIGMA) ratio of 3:7 was added to the wells of a 96 well plate (Immulon I, manufactured by Dynatech), and exsiccated by using a centrifugal evaporator (EC-95C, manufactured by Sakuma Seisakusho) at 40° C. for 40 minutes. 200 μL each of TBS (10 mM Tris-HCl (pH 7.4) containing 1% bovine serum albumin (BSA Fraction V, hereinafter referred to as BSA, manufactured by Seikagaku Corporation) and 0.9% (W/V) NaCl solution were added to each well, and the wells were blocked by allowing the plate to stand at 37° C. for 2.5 hours. After washing the plate with water, 100 μL of TBS solution supplemented with 5% BSA mixed with human Factor VIII (manufactured by American Diagnostica) at a final concentration 1 μg/mL and the peptide of predetermined dose prepared in Example 1 was added to each well, and the reaction was allowed to take place at 4° C. for 24 hours.
After the completion of the reaction, the human Factor VIII that became bound to the phosphatidyl serine was measured by enzyme immunoassay (EIA) in accordance with the general procedure described in a book (“Enzyme Immunoassay (3rd ed.)”, Eiji Ishikawa et al., Igaku-Shoin, 1987). To be more specific, the measurement was conducted by using anti-human Factor VIII mouse monoclonal antibody (ESH8, manufactured by American Diagnostica) for the primary antibody, horseradish peroxidase-labeled anti-mouse IgG antibody (P0260, manufactured by Daco) for the secondary antibody, and tetramethylbenzidine for the chromogenic substrate, and measuring the absorption at a wavelength of 450 nm by using a reference wavelength of 630 nm on a spectrophotometer (NJ-2100, manufactured by Intermed).
Intensity of the affinity of the peptide for the phosphatidyl serine was evaluated by using the value obtained by subtracting the absorption of the well having no human Factor VIII added thereto from the absorption of the well having only the human Factor VIII added thereto as the control value (100%), and designating the peptide concentration at which the value 0.5 was obtained when the value obtained by subtracting the absorption of the well having only the peptide added thereto from the absorption of the well having a mixture of the human Factor VIII and the peptide added thereto were divided by the control value as the IC50 value, and evaluating the intensity to be ++ when the IC50 value was up to 1 μM, and +when the intensity was more than 1 μM but not more than 10 μM. It is to be noted that the specific affinity was evaluated to be none when the intensity was 10 μM or more.

[2] = test system: Vero cell; experiment: Introduction of FITC-labeled oligonucleotide, fluorescence microscopy; format: cell-based, monkey; settings: 300 nM FITC-labeled oligonucleotide, 2.5 μM peptide
Description: Vero cell was inoculated in the well of a chamber slide (Lab-Tek II chamber slide, size 4 well, manufactured by NALGEN NUNC) at a rate of 1×10^5 cells/well, and the cells were cultivated in DMEM supplemented with 10% FBS in 5% CO2 atmosphere at 37° C. for 24 hours. After removing the medium, opti-MEM containing 300 nM FITC-labeled oligonucleotide prepared in Example 6 and 2.5 μM of the peptide of SEQ ID NO:1 prepared in Example 1 was added, and the cultivation was continued for 4 hours. The medium was replaced with DMEM supplemented with 10% FBS, and the cultivation was continued in 5% CO2 atmosphere at 37° C. for another 24 hours. After washing the cell with PBS, the cells were fixed by using PBS containing 4% paraformaldehyde, and accumulation of FITC-labeled oligonucleotide in the cell nucleus was confirmed by using a fluorescence microscope (AH-3, manufactured by Olympus). […] On the other hand, accumulation of FITC-labeled oligonucleotide in the cell was not confirmed in the absence of the peptide of SEQ ID NO:1.

[3] = test system: 21mer oligonucleotide; experiment: Binding ability to oligonucleotide (electrophoresis); settings: charge ratio (+/−ratio) of 10
Description: The 21mer oligonucleotide prepared by the procedure described in Example 6 (final concentration, 6.7 μM) and the peptide prepared by the procedure described in Examples 1 to 3 were mixed in 20 mM Tris-HCl buffer (pH=7.2) containing 150 mM NaCl at a charge ratio (+/−ratio) of 0 to 10, and the mixture was allowed to stand at 37° C. for 30 minutes. Next, 7.5 μL of this solution was mixed with an equal amount of Tris-borate buffer (pH=8.2) containing 80% formamide, and electrophoresis was conducted on 25% polyacrylamide gel containing 7M urea. After the electrophoresis, the gel was stained with 5% aqueous solution of Stains all (manufactured by Funakoshi) containing 50% formamide and washed with water to thereby determine the binding of the oligonucleotide and the peptide.
The +/−ratio (charge ratio) indicated in FIG. 10 is the ratio of the number (+) of the positively-charged groups in the peptide to the number (−) of negatively-charged groups in the nucleic acid. As evident in FIG. 10, the amount of oligonucleotide that became bound to the peptide increased with the increase in the charge ratio (+/−ratio), and the oligonucleotide was fully bound to the peptide at a charge ratio (+/−ratio) of 10. The peptides of SEQ ID NO:2 to SEQ ID NO:24 were also found to bind at a charge ratio (+/−ratio) of 10.

[4] = Measurement of CD spectrum; format: physicochemical; settings: aqueous solution solely containing an inorganic salt, pH 7, 35° C.
Description: The peptide dissolved in 10 mM phosphate buffer (pH=7) containing 50 mM NaCl was evaluated for its CD spectrum in the presence and in the absence of 5 mM SDS by using a circular dichroism spectrophotometer (J-500A, manufactured by JASCO). The cell length was 1 mm. The measurement was conducted at 35° C. for 6 times in total. FIGS. 7 to 9 are respectively views showing mean residue ellipticity in CD spectroscopy of the peptide of SEQ ID NO:1, the peptide of SEQ ID NO:4 and the peptide of SEQ ID NO:16. As evident in FIGS. 7 to 9, the mean residue ellipticity obtained in the presence of SDS was the so called W curve and local minimums were found in the areas at the wavelength of 205 to 210 nm and 220 to 225 nm, and α-helix structure was thereby confirmed.

- IC50 [1]: < 1000 nM
- binding of oligonucleotide to the peptide [3]: fully bound
Substance: SEQ ID NO: 1: peptide having the amino acid sequence of SEQ ID NO:1, made by solid phase synthesis (TRYLRIHPRSWVHQIALRLRYLRIHPRSWVHQIALRS; synthetic peptide using an automatic peptide synthesizer)
- accumulation of FITC-labeled oligonucleotide in the cell nucleus [2]: FITC-labeled oligonucleotide was accumulated in the cell nucleus
- α-helix structure in CD spectrum in the absence of SDS [4]: do not take α-helix structure
